Laboratory results: patent US11530244B2, “Cyclic polypeptides for PCSK9 inhibition” (priority 2018, dated 2022)
Starred links: 1 amine or outer side, 2 acyl side, 3 side chain; linkers in the order of their positions; H or OH if unused. Positions of bridges follow the written chain, without caps; N, C: chain ends. Non-standard residues stand in square brackets, D forms with d. Residues, ends and D or L forms follow the SMILES beside them. Groups on a side chain read outwards from the residue. *: point of attachment. Phe(3-CH2NH2) = O=C([C@H](Cc1cccc(CN[*:3])c1)N[*:1])[*:2]; NHCH2C6H4(p)CH2CH2NH = c1cc(CN[*:1])ccc1CCN[*:2]; Ala(imidazol-2-yl) = N[C@@H](Cc1ncc[nH]1)C(=O)O; X32 = O=C(CCc1cccc2c1oc1c(CCN[*:1])cccc12)[*:2]; Trp(5-F) = N[C@@H](Cc1c[nH]c2ccc(F)cc12)C(=O)O; Phe(4-CH2NH2) = NCc1ccc(C[C@H](N)C(=O)O)cc1; X3 = O=C(CCSCc1cc(F)cc(CSCCN[*:1])c1)[*:2]; Heptanedioyl = O=C(CCCCCC(=O)[*:2])[*:1]; Pro(cis-4-F) = O=C(O)[C@@H]1C[C@H](F)CN1; γGlu = O=C(O)[C@H](CCC(=O)[*:2])N[*:1]; Propanoyl(3,3,3-F3) = O=C(CC(F)(F)F)*; mXylylene = c1cc(C[*:1])cc(C[*:2])c1; AEF = NCCOc1ccc(C[C@H](N)C(=O)O)cc1; Glutaryl = O=C(CCCC(=O)[*:2])[*:1]; Lys(Me2) = CN(C)CCCC[C@H](N)C(=O)O; Palmitoyl = CCCCCCCCCCCCCCCC(=O)*; Suc = O=C(CCC(=O)[*:2])[*:1]; αMeP = C[C@@]1(C(=O)O)CCCN1; AEEEA = NCCOCCOCCOCC(=O)O; PEG2 = NCCOCCOCCC(=O)O; AEEA = NCCOCCOCC(=O)O; Glycolyl = O=C(CO)*; Mpa = O=C(O)CCS

Columns and labels:
PCSK9 [1] = target: T1, PCSK9 (Homo sapiens (Human), UniProt Q8NBP7); test: PCSK9 Alexa FRET Plus assay (displacement of AlexaFluor647 tagged cyclic peptide Reagent B); assay type: binding; conditions: 0.5 nM PCSK9, 960 nM AF cyclic peptide Reagent B
How it was run: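 TR-FRET displacement with final 0.5 nM biotinylated PCSK9, 1.25 nM Strep-Eu and 960 nM AlexaFluor-tagged cyclic peptide in HEPES pH 7.4, NaCl, CaCl2, BSA, P20; ≥2 h at room temperature. IC50 from sigmoidal fit, converted to Ki using peptide KD. Falling europium counts flagged false positives.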

PCSK9 [2] = target: T1, PCSK9; test: PCSK9 Alexa FRET Standard assay (displacement of AlexaFluor647 tagged cyclic peptide Reagent A); assay type: binding; conditions: 0.5 nM PCSK9, 20 nM AF cyclic peptide Reagent A
How it was run: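 TR-FRET displacement: 0.5 nM biotinylated PCSK9 with 1.25 nM Strep-Eu and 20 nM AlexaFluor-tagged cyclic peptide (final) in 50 mM HEPES pH 7.4, 0.15 M NaCl, 5 mM CaCl2, 0.01% BSA, 0.01% P20, ≥2 h at room temperature. IC50 from sigmoidal fit, converted to Ki via peptide KD; falling Eu counts flagged false positives.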

[3] = Alexa FRET Plus, read-out: IC50
[4] = PCSK9 Alexa FRET Standard assay, read-out: IC50

T1 sequence (Q8NBP7 153-692): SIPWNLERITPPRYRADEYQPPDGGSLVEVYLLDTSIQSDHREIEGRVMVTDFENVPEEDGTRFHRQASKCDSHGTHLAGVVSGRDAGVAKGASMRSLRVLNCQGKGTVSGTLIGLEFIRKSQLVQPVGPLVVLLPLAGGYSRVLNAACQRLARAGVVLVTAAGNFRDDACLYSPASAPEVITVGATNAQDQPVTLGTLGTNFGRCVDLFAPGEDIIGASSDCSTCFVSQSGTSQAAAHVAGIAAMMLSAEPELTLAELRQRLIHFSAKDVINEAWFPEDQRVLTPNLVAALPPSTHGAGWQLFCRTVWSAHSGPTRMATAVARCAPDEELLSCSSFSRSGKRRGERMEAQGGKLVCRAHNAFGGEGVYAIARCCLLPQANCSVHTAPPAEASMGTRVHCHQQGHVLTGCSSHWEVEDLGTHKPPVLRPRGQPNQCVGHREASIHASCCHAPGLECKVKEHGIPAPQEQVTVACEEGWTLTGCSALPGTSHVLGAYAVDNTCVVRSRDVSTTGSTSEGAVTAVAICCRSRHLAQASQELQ

Compound | IC50 (PCSK9 [1]; [3]) [nM] | IC50 (PCSK9 [2]; [4]) [nM] | IC50 (PCSK9 [1]; IC50, Alexa FRET Plus) [nM] | IC50 (PCSK9 [2]; IC50, PCSK9 Alexa FRET Standard assay) [nM]
CCCCCCCCCCCCCCCC(=O)N[C@@H](CCC(=O)NCCOCCOCC(=O)NCCOCCOCC(=O)NCCCC[C@@H]1NC(=O)CCSCc2cccc(c2)CSC[C@@H](C(N)=O)NC(=O)[C@]2(C)CCCN2C(=O)[C@H](Cc2ccc(O)cc2)NC(=O)[C@H](Cc2cnc[nH]2)NC(=O)[C@H](CC(=O)O)NC(=O)[C@H](Cc2c[nH]c3ccc(F)cc23)NC(=O)[C@H](Cc2c[nH]c3ccc(F)cc23)NC(=O)[C@@H](C)NC1=O)C(=O)O [Compound 456] ([Mpa]K([AEEA-AEEA-γGlu-Palmitoyl])[dA][Trp(5-F)][Trp(5-F)]DHY[αMeP]C-NH2; linker 1-10 via mXylylene) | 500 to 5000 | 21000 to 50000 | – | –
C[C@@]12CCCN1C(=O)[C@H](Cc1ccc(O)cc1)NC(=O)CN1C(=O)[C@@H](N=C(C3CCCCC3)c3ccccc31)NC(=O)[C@H](Cc1c[nH]c3ccc(F)cc13)NC(=O)[C@H](Cc1c[nH]c3ccc(F)cc13)NC(=O)CNC(=O)[C@H](CCCCN)NC(=O)CCSCc1cccc(c1)CSC[C@@H](C(N)=O)NC2=O [Compound 129] | 500 to 5000 | 0.11 to 100 | – | –
COc1ccc(C[C@@H]2NC(=O)[C@H](Cc3ncc[nH]3)NC(=O)[C@H](CC(=O)O)NC(=O)[C@H](Cc3c[nH]c4ccc(F)cc34)NC(=O)[C@H](Cc3c[nH]c4ccc(F)cc34)NC(=O)[C@@H](C)NC(=O)[C@H](CCCCN(C)C)NC(=O)CCSCc3cc(F)cc(c3)CSCCNC(=O)[C@]3(C)CCCN3C2=O)cc1 [Compound 466] (cyclo(D[Ala(imidazol-2-yl)]Y(Me)[αMeP][X3][Lys(Me2)][dA][Trp(5-F)][Trp(5-F)])) | 500 to 5000 | 100 to 1000 | – | –
NC(=O)[C@@H]1Cc2ccc(cc2)CNC(=O)CCCCCC(=O)NCC(=O)N[C@@H](Cc2c[nH]c3ccc(F)cc23)C(=O)N[C@@H](Cc2c[nH]c3ccc(F)cc23)C(=O)N[C@@H](CC(=O)O)C(=O)N[C@@H](Cc2cnc[nH]2)C(=O)N[C@@H](Cc2ccc(O)cc2)C(=O)N1 [Compound 455] (G[Trp(5-F)][Trp(5-F)]DHY[Phe(4-CH2NH2)]-NH2; linker N-7 via Heptanedioyl) | 500 to 5000 | 1000 to 12100 | – | –
CC(=O)N[C@@H]1CCCC/C=C\CO[C@H]2C[C@@H](C(N)=O)N(C2)C(=O)[C@H](Cc2ccc(O)cc2)NC(=O)[C@H](Cc2cnc[nH]2)NC(=O)[C@H](CC(=O)O)NC(=O)[C@H](Cc2c[nH]c3ccc(F)cc23)NC(=O)[C@H](Cc2c[nH]c3ccc(F)cc23)NC(=O)CNC1=O [Compound 422] | 100 to 500 | 0.11 to 100 | – | –
COc1ccc(C[C@@H]2NC(=O)[C@H]([C@H](C)O)NC(=O)[C@@H]3CCCc4cn(nn4)CC[C@H](NC(=O)[C@@H](C)NC(=O)[C@H](C)NC(=O)CCSCc4cccc(c4)CSCCNC(=O)[C@]4(C)CCCN4C2=O)C(=O)N[C@@H](Cc2c[nH]c4ccc(F)cc24)C(=O)N3)cc1 [Compound 525] | 500 to 5000 | 100 to 1000 | – | –
COc1ccc(C[C@@H]2NC(=O)[C@H]([C@@H](C)O)NC(=O)[C@@H]3C[C@H](F)CN3C(=O)[C@H](Cc3c[nH]c4ccc(F)cc34)NC(=O)[C@H](Cc3c[nH]c4ccc(F)cc34)NC(=O)[C@@H](C)NC(=O)CNC(=O)[C@@H](NC(C)=O)CCNCc3ccc(cc3)C[C@@H](C(N)=O)NC(=O)[C@]3(C)CCCN3C2=O)cc1 [Compound 102] | – | 0.11 to 100 | 500 to 5000 | –
COc1ccc(C[C@@H]2NC(=O)[C@H]([C@@H](C)O)NC(=O)[C@@H]3C[C@H](F)CN3C(=O)[C@H](Cc3c[nH]c4ccc(F)cc34)NC(=O)[C@H](Cc3c[nH]c4ccc(F)cc34)NC(=O)[C@@H](C)NC(=O)[C@H](CCCCN)NC(=O)CCC(=O)NCc3ccc(cc3)C[C@@H](C(N)=O)NC(=O)[C@]3(C)CCCN3C2=O)cc1 [Compound 097] (K[dA][Trp(5-F)][Trp(5-F)][Pro(cis-4-F)]TY(Me)[αMeP][Phe(4-CH2NH2)]-NH2; linker N-9 via Suc) | 500 to 5000 | 0.11 to 100 | – | –
NC(=O)[C@@H]1Cc2cccc(c2)CNC(=O)CCCC(=O)NCC(=O)N[C@@H](Cc2c[nH]c3ccc(F)cc23)C(=O)N[C@@H](Cc2c[nH]c3ccc(F)cc23)C(=O)N[C@@H](CC(=O)O)C(=O)N[C@@H](Cc2ncc[nH]2)C(=O)N[C@@H](Cc2ccc(O)cc2)C(=O)N1 [Compound 458] (G[Trp(5-F)][Trp(5-F)]D[Ala(imidazol-2-yl)]Y[Phe(3-CH2NH2)]-NH2; linker N-7 via Glutaryl) | 500 to 5000 | 21000 to 50000 | – | –
C[C@@]12CCCN1C(=O)[C@H](Cc1ccc(O)cc1)NC(=O)N[C@H]1CCCc3ccc(cc31)C(=O)[C@H](Cc1c[nH]c3ccc(F)cc13)NC(=O)[C@H](Cc1c[nH]c3ccc(F)cc13)NC(=O)CNC(=O)[C@H](CCCCN)NC(=O)CCSCc1cccc(c1)CSC[C@@H](C(N)=O)NC2=O [Compound 139] | 500 to 5000 | 1000 to 12100 | – | –
COc1ccc(C[C@@H]2NC(=O)[C@H]([C@@H](C)O)NC(=O)[C@@H]3C[C@H](F)CN3C(=O)[C@H](Cc3c[nH]c4ccc(F)cc34)NC(=O)[C@H](Cc3c[nH]c4ccc(F)cc34)NC(=O)[C@@H](C)NC(=O)[C@H](CCCCN)NC(=O)[C@@H](NC(C)=O)CC(=O)NCc3ccc(cc3)CCNC(=O)[C@]3(C)CCCN3C2=O)cc1 [Compound 095] (Ac-DK[dA][Trp(5-F)][Trp(5-F)][Pro(cis-4-F)]TY(Me)[αMeP]; linker 1-C via NHCH2C6H4(p)CH2CH2NH) | 500 to 5000 | 100 to 1000 | – | –
CCCCCCCCCCCCCCCC(=O)N[C@@H](CCC(=O)NCCOCCOCC(=O)NCCOCCOCC(=O)NCc1ccc(C[C@@H]2NC(=O)[C@@H](C)NC(=O)[C@H](CCCCN)NC(=O)CCSCc3cccc(c3)CSC[C@@H](C(N)=O)NC(=O)[C@]3(C)CCCN3C(=O)[C@H](Cc3ccc(O)cc3)NC(=O)[C@H](Cc3cnc[nH]3)NC(=O)[C@H](CC(=O)O)NC(=O)[C@H](Cc3c[nH]c4ccc(F)cc34)NC2=O)cc1)C(=O)O [Compound 453] ([Mpa]K[dA][Phe(4-CH2NH2)]([AEEA-AEEA-γGlu-Palmitoyl])[Trp(5-F)]DHY[αMeP]C-NH2; linker 1-10 via mXylylene) | 0.1 to 100 | 0.11 to 100 | – | –
COc1ccc(C[C@@H]2NC(=O)[C@H]([C@@H](C)O)NC(=O)[C@@H]3C[C@H](F)CN3C(=O)[C@H](Cc3c[nH]c4ccc(F)cc34)NC(=O)[C@H](Cc3c[nH]c4ccc(F)cc34)NC(=O)[C@@H](C)NC(=O)[C@H](CCCCN)NC(=O)[C@@H](NC(C)=O)CCC/C=C\Cc3ccc(cc3)C[C@@H](C(N)=O)NC(=O)[C@]3(C)CCCN3C2=O)cc1 [Compound 137] | 500 to 5000 | 21000 to 50000 | – | –
C[C@@]12CCCN1C(=O)[C@H](Cc1ccc(O)cc1)NC(=O)CCc1cccc3c1Oc1c(cccc1-3)CCNC(=O)[C@H](Cc1c[nH]c3ccc(F)cc13)NC(=O)[C@H](Cc1c[nH]c3ccc(F)cc13)NC(=O)CNC(=O)[C@H](CCCCN)NC(=O)CCSCc1cccc(c1)CSC[C@H](C(N)=O)NC2=O [Compound 120] ([Mpa]KG[Trp(5-F)][Trp(5-F)][X32]Y[αMeP][dC]-NH2; linker 1-9 via mXylylene) | 500 to 5000 | 1000 to 12100 | – | –
COc1ccc(C[C@@H]2NC(=O)[C@H]([C@@H](C)O)NC(=O)[C@@H]3C[C@H](F)CN3C(=O)[C@H](Cc3c[nH]c4ccc(F)cc34)NC(=O)[C@H](Cc3c[nH]c4ccc(F)cc34)NC(=O)[C@@H](C)NC(=O)[C@H](CCCCN)NC(=O)[C@@H](NC(=O)CO)CC(=O)NCCOc3ccc(cc3)C[C@@H](C(N)=O)NC(=O)[C@]3(C)CCCN3C2=O)cc1 [Compound 116] (Glycolyl-DK[dA][Trp(5-F)][Trp(5-F)][Pro(cis-4-F)]TY(Me)[αMeP][AEF]-NH2; lactam 1-10) | 500 to 5000 | 21000 to 50000 | – | –
COc1ccc(C[C@@H]2NC(=O)[C@H]([C@@H](C)O)NC(=O)[C@@H]3C[C@H](F)CN3C(=O)[C@H](Cc3c[nH]c4ccc(F)cc34)NC(=O)[C@H](Cc3c[nH]c4ccc(F)cc34)NC(=O)[C@@H](C)NC(=O)[C@H](CCCCN)NC(=O)[C@@H](NC(=O)CC(F)(F)F)CC(=O)NCCOc3ccc(cc3)C[C@@H](C(N)=O)NC(=O)[C@]3(C)CCCN3C2=O)cc1 [Compound 114] ({Propanoyl(3,3,3-F3)}-DK[dA][Trp(5-F)][Trp(5-F)][Pro(cis-4-F)]TY(Me)[αMeP][AEF]-NH2; lactam 1-10) | 500 to 5000 | 21000 to 50000 | – | –
CCCCCCCCCCCCCCCC(=O)N[C@@H](CCC(=O)NCCOCCOCCC(=O)NCCOCCOCC(=O)NCCCC[C@H](NC(=O)COCCOCCOCCNC(=O)[C@@H]1CSCc2cccc(c2)CSCCC(=O)N[C@@H](CCCCN)C(=O)N[C@H](C)C(=O)N[C@@H](Cc2c[nH]c3ccc(F)cc23)C(=O)N[C@@H](Cc2c[nH]c3ccc(F)cc23)C(=O)N[C@@H](CC(=O)O)C(=O)N[C@@H](Cc2cnc[nH]2)C(=O)N[C@@H](Cc2ccc(O)cc2)C(=O)N2CCC[C@@]2(C)C(=O)N1)C(N)=O)C(=O)O [Compound 473] ([Mpa]K[dA][Trp(5-F)][Trp(5-F)]DHY[αMeP]C[AEEEA]K([AEEA-PEG2-γGlu-Palmitoyl])-NH2; linker 1-10 via mXylylene) | 500 to 5000 | 21000 to 50000 | – | –
C[C@@]12CCCN1C(=O)[C@H](Cc1ccc(O)cc1)NC(=O)CN1C(=O)[C@@H](N=C(c3ccccc3)c3ccccc31)NC(=O)[C@H](Cc1c[nH]c3ccc(F)cc13)NC(=O)[C@H](Cc1c[nH]c3ccc(F)cc13)NC(=O)CNC(=O)[C@H](CCCCN)NC(=O)CCSCc1cccc(c1)CSC[C@@H](C(N)=O)NC2=O [Compound 122] | – | – | 0.1 to 100 | 0.11 to 100
